According to US8168197B2, “External composition for skin containing Scrophularia buergeriana miq. extract and the use thereof for the skin moisturizing cosmetics” (Amorepacific Corporation, priority 2007, dated 2012):

System: human skin
Assay: Production of epidermal lipid (total ceramide) on human skin
Type: in vivo
Conditions: 5% test material, 20 μl on human forearm
Procedure: In order to evaluate the effects of the Scrophularia buergeriana Miq. and Poria cocos Wolf extracts on an increase in the synthesis of lipid on the human skin, the following test was carried out. The composition of the test material consisted of 0.5% of Carbopol ETD 2020, 0.45% of TEA 0.45%, 5% test material and the balance of deionized water. On the forearm of each of 12 adult men and women, a region having a size corresponding to the size of a 50-ml polypropylene conical tube was marked, and then 20 μl of each of control groups, the Scrophularia buergeriana Miq. extract and the Scrophularia buergeriana Miq. extract/Poria cocos Wolf extract mixture was applied on the subjects. Herein, the subjects were divided into two groups, lipids were extracted from the subjects at day 3 and day 11 in the following manner, and the extracted lipid were analyzed. Specifically, the forearm was washed with service water, and then subjected to tape stripping one time with Scotch® 810 Magic tape. Then, 1 ml of a mixture of cyclohexane/ethanol (4:1) was added to the forearm using a 50-ml cut polypropylene conical tube as a reservoir and shaken for about 1 minute, and was then transferred into a fresh tube. […]
After the TLC plate was developed, the size of each band was measured at a wavelength of 570 nm using a TLC Scanner-II densitometer (CAMAG). […]

**Q.** How did the “production of ceramide relative to the untreated group taken as 100%, 3 days after treatment” value (3 days after treatment) turn out when `OCC(O)CO` [Glycerin] was run?
**A.** 102%

**Q.** And the “production of ceramide relative to the untreated group taken as 100%, 11 days after treatment” value (11 days after treatment)?
**A.** 94%
